# Assay results taken from US8017747B2, “Apoptosis-inducing genes for treating cancer” (Nationwide Children's Hospital, Inc., priority 2004, dated 2011).
# Counter-ions that a name gives are not always drawn. Like-named read-outs stand apart in the source and are kept apart here.
# What was measured:
# 697Bcl2 cells = test: 697Bcl2 cell growth, trypan blue exclusion; format: cell-based; conditions: 72 hours
# Description: (§1) To determine cell viability, cells were subjected to trypan blue exclusion assays. Briefly, cells were washed with PBS, and diluted 1:1 in a solution of 0.4% trypan blue. Viable cells were counted and total viable cell number was used for growth curves. Late apoptotic/necrotic cells were also identified by staining with 0.4% trypan blue. The number of apoptotic/necrotic cells were counted and expressed as a percentage of the total number of cells.
# (§2) The foregoing descriptions provide many working examples organized under a single example as an aid to the reader. Further, these descriptions emphasized the results obtained with Jurkat cells.
# [1] = test system: SKOV-3 intraperitoneal ovarian tumors; conditions: 26 days; for Tumor Size / Tumor Weight: mean
# Daoy cells [2] = test: Daoy cell growth/viability, trypan blue exclusion; format: cell-based; conditions: 24 hours, VCR 2 μM
# Procedure: Medulloblastoma cell lines, i.e., Daoy cells (ATCC HTB-186), were grown in DMEM-(Mediatech) supplemented with 10% FBS and grown at 37° C. in 95% air, 5% CO2. For growth analysis, cells were seeded at a density of 1.5×10^5 cells. Transfections were performed using effectene transfection reagent, at a ratio of 1 μg DNA:10 μl effectene.
# as §1
# Proliferating Daoy cells were seeded at a density of 1.5×10^5 cells and transfected with control plasmid, SAGA, or treated with 2 μM VCR. Viable cells were assayed by trypan blue exclusion at 0, 24, 48 and 72 hours post-transfection/treatment. There was a 90% decrease in the viability of SAGA-transfected cells at 24 hours compared to 50% for VCR-treated cells. Control cells grew consistently, with a doubling time of approximately 48 hours.
# Jurkat cells [3] = test: Western blot of Jurkat lysates (Granzyme B, caspase-3, p21); format: cell-based; conditions: 48 hours
# Procedure: Proteins were extracted from cells by boiling in 0.5% SDS. Quantification of the protein content of the cell lysates was determined using the Lowry method. A total of 15 μg of each cell lysate were analyzed through electrophoretic separation in 12% SDS-PAGE and transferred onto a nitrocellulose membrane using a semi-dry transfer apparatus, at 20V for 1 hour. The membrane was probed with rabbit anti-caspase-3 polyclonal antibody (1:1000, Santa Cruz Biotech), rabbit anti-granzyme B (1:1000, Abcam) or mouse anti-p21 (1:1000, Santa Cruz Biotech) and HRP-conjugated anti-rabbit or anti-mouse IgG (1:5000, Santa Cruz Biotech). Detection was achieved using the ECL or ECL Advanced kits (Amersham) and exposure to X-ray film for varying amounts of time. Protein standards were used for size determination.
# Proliferating Jurkat cells were transfected with the survivin promoter-granzyme B construct disclosed herein and termed SAGA, for 24 or 48 hours. Protein extracts were generated from transfected cells and control transfected cells, and analyzed by SDS-PAGE.
# After confirming expression of Granzyme B from SAGA, its apoptotic function was tested by assaying for caspase-3 activation. Proliferating Jurkat cells were transfected with SAGA for 24 or 48 hours, as previously described. Protein extracts were separated by SDS-PAGE.
# The levels of p21 in control cells at both time points were negligible.
# 697Bcl2 cells (B-ALL) = test: Annexin V/PI staining with FACS, B-ALL (697Bcl2); format: cell-based
# Procedure: (§3) To analyze early apoptotic events, cells from the different experimental conditions were subjected to staining with an Annexin V-FLUOS kit (Roche). FACS analysis was then performed.
# as §2
# Jurkat cells (T-ALL) = test: Annexin V/PI staining with FACS, T-ALL (Jurkat); format: cell-based
# Procedure: as §3
# Annexin-V/PI is a commonly used method to detect early apoptotic events in cells. We employed this strategy to assay early apoptosis in SAGA transfected cells at 12, 24 and 48 hours.
# Apoptotic events were detected by Annexin V staining and by changes in mitochondrial potential, as early as 12 hours post-treatment. In addition to these events, DNA fragmentation was also observed and caspase-3 activation was evident in treated cells. Cytotoxicity was clearly visible by microscopic analysis 24 hours post-treatment (FIG. 3).
# Jurkat cells [4] = test: Phase contrast microscopy of Jurkat cells (morphological changes); format: cell-based; conditions: 12 hours
# Procedure: SAGA transfected, VCR treated, and control cells were visualized microscopically at 0, 12, 48 and 72 hours post transfection/treatment. At 0 hours, the cells in all groups appeared healthy. At 12 hours, there was approximately 5% apoptosis seen in both SAGA- and VCR-treated cell populations. At 48 and 72 hours, more than 50% of apoptotic cells in SAGA- and VCR-treated cell populations were visualized, with a very high degree of morphologically abnormal cells in the population of cells transfected with SAGA, including late necrotic and lysed cells, appearing as cellular debris.
# Daoy cells [5] = test: Phase contrast microscopy of Daoy cells; format: cell-based; conditions: 48 and 72 hours
# Procedure: Living cells in 12-well plates were observed by phase contrast microscopy using a Leica Inverted microscope at 10× magnification.
# SAGA-transfected, VCR-treated, and control cells were visualized microscopically at 0, 24, 48 and 72 hours post transfection/treatment. At 0 hours, the cells in all groups appeared healthy.
# Jurkat cells [6] = test: Jurkat cell growth/viability and late apoptosis, trypan blue exclusion; format: cell-based
# Procedure: Acute T-cell leukemia cells, Jurkat, were grown in RPMI-1640 (Mediatech) supplemented with 10% FBS and grown at 37° C. in 95% air, 5% CO2. For growth analysis, cells were seeded at a density of 2×10^5 cells and for all other experiments a density of 5×10^5 was used. Transfections were performed using effectene transfection reagent, at a ratio of 1 μg DNA:25 μl effectene.
# as §1
# Proliferating Jurkat cells were seeded at a density of 2×10^5 cells and transfected with control plasmid, SAGA, or treated with 2 μM VCR. Viable cells were assayed by trypan blue exclusion at 0, 12, 24, 48 and 72 hours post-transfection/treatment. […]
# Late apoptosis was quantified as the percentage of dead cells versus total cells. […]
# In addition to the single treatment effects of SAGA expression on transfected cells, the combined effects of treatment with SAGA plus VCR were also evaluated in vitro using Jurkat cells. […]
# Jurkat cells [7] = test: DNA fragmentation by agarose gel, Jurkat; format: cell-based; conditions: 48 hours
# Procedure: To analyze DNA fragmentation, cellular DNA was isolated by lysis of cells in Cell Lysis Buffer (50 mM Tris-HCl, pH 8.5, 20 mM EDTA, 1% NP-40 (IGEPAL CA-630)) for 30 minutes on ice, followed by a 1 hour incubation at 56° C. with 500 μg/ml RNase A (Roche) and an overnight incubation with 1 mg/ml proteinase K (Fisher) at 37° C. After allowing the solution to cool to room temperature, proteins were precipitated with Protein precipitation solution (Gentra Systems) and isopropanol was added to the supernatants containing DNA to precipitate that DNA. The resulting RNase-treated DNA was quantified by spectrophotometry and 5 μg of DNA were resolved in a 1.8% agarose gel at 80V for 2 hours. DNA was stained by ethidium bromide and visualized with a UV transilluminator. A 1 kB Plus DNA ladder (Fisher) was run alongside the samples.
# DNA fragmentation is a common sign of late-stage apoptosis that is characterized by enzyme-mediated nicks and breaks in the DNA. […] The onset of DNA fragmentation occurred at 12 hours post-treatment for SAGA-treated cells. […] DNA from control cells remained intact throughout the experiment.
smiles,measurement,setting,value
"COc1cc([C@@H]2c3cc4c(cc3[C@@H](O[C@@H]3O[C@@H]5CO[C@@H](C)O[C@H]5[C@H](O)[C@H]3O)[C@H]3COC(=O)[C@H]23)OCO4)cc(OC)c1O [Etoposide, etoposide]",living cells as % of the original inoculum,"697Bcl2 cells; vincristine normal serum concentration, etoposide 5 μM",61.8%
"CC(=O)O[C@H]1C(=O)[C@@]2(C)[C@H]([C@H](OC(=O)c3ccccc3)[C@]3(O)C[C@H](OC(=O)[C@H](O)[C@@H](NC(=O)c4ccccc4)c4ccccc4)C(C)=C1C3(C)C)[C@]1(OC(C)=O)CO[C@@H]1C[C@@H]2O [Paclitaxel, paclitaxel]",Disease Dissemination,[1],4 of 5
same,Number of Nodules,[1],6.2 ± 3.9
same,Animals with Tumors at Completion of Therapy,"[1]; paclitaxel 15 mg/kg i.p. 2 injections, SAGA 0.5 mg/kg DNA i.p. twice weekly",5 of 5
same,Tumor Size,[1],10.4 ± 1.3 mm
same,Tumor Weight,[1],236.0 ± 79.8 mg
same,Tumor Size,[1]; listed as paclitaxel,10.4 mm
same,Tumor Weight,[1]; listed as paclitaxel,236.0 mg
"CC[C@]1(O)C[C@H]2CN(CCc3c([nH]c4ccccc34)[C@@](C(=O)OC)(c3cc4c(cc3OC)N(C=O)[C@H]3[C@@](O)(C(=O)OC)[C@H](OC(C)=O)[C@]5(CC)C=CCN6CC[C@]43[C@@H]65)C2)C1 [Vincristine, Vincristine sulfate]",decrease in viability,Daoy cells [2],50%
same,p21 protein induction,Jurkat cells [3],much lower levels
same,Early Apoptosis,697Bcl2 cells (B-ALL); 24 hours,1.78%
same,Necrosis,697Bcl2 cells (B-ALL); 24 hours,1.17%
same,Early Apoptosis,697Bcl2 cells (B-ALL); 48 hours,5.09%
same,Necrosis,697Bcl2 cells (B-ALL); 48 hours,2.34%
same,Early Apoptosis,Jurkat cells (T-ALL); 24 hours,46.5%
same,Necrosis,Jurkat cells (T-ALL); 24 hours,18%
same,Early Apoptosis,Jurkat cells (T-ALL); 48 hours,49.4%
same,Necrosis,Jurkat cells (T-ALL); 48 hours,26%
same,apoptosis seen microscopically,Jurkat cells [4],approximately 5%
same,apoptotic cells seen microscopically,Daoy cells [5],high numbers of apoptotic cells
same,average viability,Jurkat cells [6]; 48 hours after treatment,86%
same,final living cell count as % of the initial cell number at time 0,"Jurkat cells [6]; 72 hours post-transfection/treatment, VCR 2 μM",63%
same,DNA fragmentation,Jurkat cells [7],visible
same,living cells as % of the original inoculum,697Bcl2 cells; high dose of vincristine (5 μM),103%
